Assay results reported in PubChem BioAssay (NCI).
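Results reflect a 48-hour exposure of cells in 96-well plates to compound at five concentrations. TGI marks complete inhibition of growth.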

Tests used:
Assay in all cases: inhibition of tumour cell growth, NCI panel, 48 h
[1] = system: A549 NSCLC
[2] = system: HCT-15 colon
[3] = system: LOX IMVI melanoma
[4] = system: MCF7 breast
[5] = system: ACHN renal
[6] = system: HOP-92 NSCLC
[7] = system: T-47D breast
[8] = system: UACC-62 melanoma
[9] = system: OVCAR-5 ovarian
[10] = system: SK-OV-3 ovarian
[11] = system: UO-31 renal
[12] = system: UACC-257 melanoma
[13] = system: HS 578T breast
[14] = system: EKVX NSCLC
[15] = system: NCI-H23 lung
[16] = system: RPMI-8226 leukemia
[17] = system: BT-549 breast
[18] = system: NCI/ADR-RES ovarian
[19] = system: CAKI-1 renal
[20] = system: M14 melanoma
[21] = system: SNB-19 CNS
[22] = system: KM12 colon
[23] = system: HOP-62 NSCLC
[24] = system: SW-620 colon
[25] = system: SN12C renal
[26] = system: NCI-H460 lung
[27] = system: K-562 leukemia
[28] = system: PC-3 prostate
[29] = system: OVCAR-3 ovarian
[30] = system: SK-MEL-5 melanoma
[31] = system: CCRF-CEM leukemia
[32] = system: DU-145 prostate
[33] = system: 786-0 renal
[34] = system: IGROV1 ovarian
[35] = system: SK-MEL-28 melanoma
[36] = system: SF-295 CNS
[37] = system: NCI-H226 lung
[38] = system: MOLT-4 leukemia
[39] = system: OVCAR-4 ovarian
[40] = system: NCI-H522 lung
[41] = system: SR leukemia
[42] = system: U251 CNS
[43] = system: HL-60(TB) leukemia
[44] = system: HT29 colon
[45] = system: MALME-3M melanoma
[46] = system: MDA-MB-435
[47] = system: MDA-N
[48] = system: TK-10 renal
[49] = system: SF-268 CNS
[50] = system: COLO 205 colon
[51] = system: HCT-116 colon
[52] = system: OVCAR-8 ovarian
[53] = system: RXF 393 renal
[54] = system: SF-539 CNS
[55] = system: SNB-75 CNS
[56] = system: SK-MEL-2 melanoma
[57] = system: MDA-MB-231 breast
[58] = system: HCC-2998 colon
[59] = system: A498 renal

## CP(=O)(O)C(N)c1ccccc1 (stereo not drawn)
[1]
  TGI: > 100 µM
[2]
  TGI: > 100 µM
[3]
  TGI: > 100 µM
[4]
  TGI: > 100 µM
[5]
  TGI: > 100 µM
[6]
  TGI: > 100 µM
[7]
  TGI: > 100 µM
[8]
  TGI: > 100 µM
[9]
  TGI: > 100 µM
[10]
  TGI: > 100 µM
[11]
  TGI: > 100 µM
[12]
  TGI: > 100 µM
[13]
  TGI: > 100 µM
[14]
  TGI: > 100 µM
[15]
  TGI: > 100 µM
[16]
  TGI: > 100 µM
[17]
  TGI: > 100 µM
[18]
  TGI: > 100 µM
[19]
  TGI: > 100 µM
[20]
  TGI: > 100 µM
[21]
  TGI: > 100 µM
[22]
  TGI: > 100 µM
[23]
  TGI: > 100 µM
[24]
  TGI: > 100 µM
[25]
  TGI: > 100 µM
[26]
  TGI: > 100 µM
[27]
  TGI: > 100 µM
[28]
  TGI: > 100 µM
[29]
  TGI: > 100 µM
[30]
  TGI: > 100 µM
[31]
  TGI: > 100 µM
[32]
  TGI: > 100 µM
[33]
  TGI: > 100 µM
[34]
  TGI: > 100 µM
[35]
  TGI: > 100 µM
[36]
  TGI: > 100 µM
[37]
  TGI: > 100 µM
[38]
  TGI: > 100 µM
[39]
  TGI: > 100 µM
[40]
  TGI: > 100 µM
[41]
  TGI: > 100 µM
[42]
  TGI: > 100 µM
[43]
  TGI: > 100 µM
[44]
  TGI: > 100 µM
[45]
  TGI: > 100 µM
[46]
  TGI: > 100 µM
[47]
  TGI: > 100 µM
[48]
  TGI: > 100 µM
[49]
  TGI: > 100 µM
[50]
  TGI: > 100 µM
[51]
  TGI: > 100 µM
[52]
  TGI: > 100 µM

## COc1ccc2nc3c([N+](=O)[O-])ccc(NCCCN(C)C)c3c(N)c2c1
[1]
  TGI: 3.15 µM
[2]
  TGI: 2.62 µM
[3]
  TGI: 3.23 µM
[4]
  TGI: 2.5 µM
[5]
  TGI: 2.59 µM
[6]
  TGI: 3.73 µM
[7]
  TGI: 3.98 µM
[8]
  TGI: 3.79 µM
[9]
  TGI: 2.75 µM
[10]
  TGI: 3.01 µM
[53]
  TGI: 2.81 µM
[11]
  TGI: 3.71 µM
[13]
  TGI: 4.79 µM
[14]
  TGI: 3.68 µM
[15]
  TGI: 3.95 µM
[16]
  TGI: 1.84 µM
[18]
  TGI: 4.25 µM
[19]
  TGI: 3.71 µM
[20]
  TGI: 3.61 µM
[21]
  TGI: 4.23 µM
[22]
  TGI: 3.02 µM
[54]
  TGI: 3.36 µM
[23]
  TGI: 3.89 µM
[24]
  TGI: 1.71 µM
[25]
  TGI: 2.99 µM
[26]
  TGI: 2.59 µM
[27]
  TGI: 1.41 µM
[28]
  TGI: 2.73 µM
[29]
  TGI: 3 µM
[30]
  TGI: 3.63 µM
[31]
  TGI: 1.26 µM
[32]
  TGI: 3.05 µM
[33]
  TGI: 2.6 µM
[34]
  TGI: 2.85 µM
[35]
  TGI: 3.04 µM
[36]
  TGI: 2.95 µM
[55]
  TGI: 3.47 µM
[37]
  TGI: 3.82 µM
[38]
  TGI: 1.69 µM
[39]
  TGI: 3.06 µM
[40]
  TGI: 1.34 µM
[41]
  TGI: 4.23 µM
[42]
  TGI: 3.02 µM
[43]
  TGI: 5.86 µM
[44]
  TGI: 2.31 µM
[45]
  TGI: 3.1 µM
[46]
  TGI: 3.66 µM
[47]
  TGI: 3.47 µM
[48]
  TGI: 3.46 µM
[56]
  TGI: 4.78 µM
[57]
  TGI: 3.09 µM
[49]
  TGI: 3.31 µM
[50]
  TGI: 2.29 µM
[51]
  TGI: 0.464 µM
[52]
  TGI: 4.69 µM

## COC(=O)C1CCCN1C(=O)OC(C)(C)C (stereo not drawn)
[1]
  TGI: > 100 µM
[2]
  TGI: > 100 µM
[3]
  TGI: > 100 µM
[4]
  TGI: > 100 µM
[5]
  TGI: > 100 µM
[58]
  TGI: > 100 µM
[7]
  TGI: > 100 µM
[8]
  TGI: > 100 µM
[9]
  TGI: > 100 µM
[10]
  TGI: > 100 µM
[53]
  TGI: > 100 µM
[11]
  TGI: > 100 µM
[12]
  TGI: > 100 µM
[14]
  TGI: > 100 µM
[15]
  TGI: > 100 µM
[17]
  TGI: > 100 µM
[18]
  TGI: > 100 µM
[19]
  TGI: > 100 µM
[21]
  TGI: > 100 µM
[22]
  TGI: > 100 µM
[23]
  TGI: > 100 µM
[24]
  TGI: > 100 µM
[25]
  TGI: > 100 µM
[26]
  TGI: > 100 µM
[27]
  TGI: > 100 µM
[28]
  TGI: > 100 µM
[29]
  TGI: > 100 µM
[30]
  TGI: > 100 µM
[31]
  TGI: > 100 µM
[32]
  TGI: > 100 µM
[33]
  TGI: > 100 µM
[34]
  TGI: > 100 µM
[35]
  TGI: > 100 µM
[36]
  TGI: > 100 µM
[55]
  TGI: > 100 µM
[37]
  TGI: > 100 µM
[38]
  TGI: > 100 µM
[39]
  TGI: > 100 µM
[41]
  TGI: > 100 µM
[42]
  TGI: > 100 µM
[44]
  TGI: > 100 µM
[46]
  TGI: > 100 µM
[47]
  TGI: > 100 µM
[48]
  TGI: > 100 µM
[56]
  TGI: > 100 µM
[57]
  TGI: > 100 µM
[49]
  TGI: > 100 µM
[50]
  TGI: > 100 µM
[51]
  TGI: > 100 µM

## Cc1ccc(S(=O)(=O)NCCCSCCO)cc1
[1]
  TGI: > 100 µM
[2]
  TGI: > 100 µM
[3]
  TGI: > 100 µM
[4]
  TGI: > 100 µM
[5]
  TGI: > 100 µM
[6]
  TGI: > 100 µM
[58]
  TGI: > 100 µM
[7]
  TGI: > 100 µM
[10]
  TGI: > 100 µM
[53]
  TGI: > 100 µM
[11]
  TGI: > 100 µM
[12]
  TGI: > 100 µM
[13]
  TGI: > 100 µM
[15]
  TGI: > 100 µM
[18]
  TGI: > 100 µM
[20]
  TGI: > 100 µM
[21]
  TGI: > 100 µM
[22]
  TGI: > 100 µM
[24]
  TGI: > 100 µM
[25]
  TGI: > 100 µM
[26]
  TGI: > 100 µM
[27]
  TGI: > 100 µM
[28]
  TGI: > 100 µM
[29]
  TGI: > 100 µM
[30]
  TGI: > 100 µM
[31]
  TGI: > 100 µM
[32]
  TGI: > 100 µM
[35]
  TGI: > 100 µM
[36]
  TGI: > 100 µM
[55]
  TGI: > 100 µM
[37]
  TGI: > 100 µM
[38]
  TGI: > 100 µM
[39]
  TGI: > 100 µM
[40]
  TGI: > 100 µM
[41]
  TGI: > 100 µM
[42]
  TGI: > 100 µM
[43]
  TGI: > 100 µM
[44]
  TGI: > 100 µM
[46]
  TGI: > 100 µM
[47]
  TGI: > 100 µM
[48]
  TGI: > 100 µM
[59]
  TGI: > 100 µM
[57]
  TGI: > 100 µM
[49]
  TGI: > 100 µM
[50]
  TGI: > 100 µM
[51]
  TGI: > 100 µM
[52]
  TGI: > 100 µM
